Values of other authors in US6719977B1, “Methods to potentiate cancer therapies” (The General Hospital Corporation, priority 1998, dated 2004).

Columns and labels:
fibroblast = conditions: a number of experimental settings
[1] = infusion of relaxin; fluid-filled subcutaneous balloon
[2] = animal models
[3] = animal models; remark: listed apart in the source
[4] = animal models; remark: listed apart in the source
[5] = infusion of collagenase
[6] = collagenase treatment

Substance: γ-interferon [a pleiotypic cytokine produced by helper T cells]
- fibroblast proliferation and associated matrix deposition (fibroblast): inhibit fibroblast proliferation and associated matrix deposition

Substance: relaxin
- resistance to balloon expansion (pressure-volume relationship) [1]: decreased the resistance to balloon expansion
- formation of fibrotic capsules surrounding impenetrable foreign bodies [2]: prevent
- accumulation of collagen within implanted sponges [3]: prevent
- parenchymal fibrosis accompanying oxidative pulmonary damage induced by bleomycin [4]: prevent

Substance: collagenase
- penetration of small and large molecules into a tumor [5]: dramatically facilitates penetration
- hydraulic conductance [6]: increases hydraulic conductance
